Data taken from patent US8440652B2, “MST1 kinase inhibitors and methods of their use” (Lexicon Pharmaceuticals, Inc., priority 2011, dated 2013).
Like-named read-outs stand apart in the source and are kept apart here.

Key:
MST1 = target: T1, MST1 (Homo sapiens, UniProt Q13043); assay: In vitro measurement of MST1 inhibition (Z′-Lyte kinase assay); type: biochemical
T1 sequence (Q13043 1-487): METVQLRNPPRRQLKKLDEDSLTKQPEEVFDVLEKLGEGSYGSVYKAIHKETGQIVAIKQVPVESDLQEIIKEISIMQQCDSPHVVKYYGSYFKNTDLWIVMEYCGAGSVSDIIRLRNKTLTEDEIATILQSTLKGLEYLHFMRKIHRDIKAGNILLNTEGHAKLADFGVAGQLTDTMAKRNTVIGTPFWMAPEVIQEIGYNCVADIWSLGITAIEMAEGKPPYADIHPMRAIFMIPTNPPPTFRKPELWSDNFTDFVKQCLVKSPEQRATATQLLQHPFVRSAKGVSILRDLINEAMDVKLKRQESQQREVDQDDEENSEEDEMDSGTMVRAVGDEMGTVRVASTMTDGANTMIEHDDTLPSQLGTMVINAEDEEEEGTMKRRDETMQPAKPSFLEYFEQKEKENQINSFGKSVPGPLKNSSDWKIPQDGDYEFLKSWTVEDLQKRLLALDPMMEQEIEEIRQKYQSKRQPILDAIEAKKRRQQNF

rat EAE model = assay: Rat EAE disease model; type: in vivo
[1] = tested on: Con-A induced hepatitis model; assay: Con-A induced hepatitis model; type: in vivo, mouse
Experimental: This model was generally conducted as follows. C57Bl/6-Albino/129SvEv mice were injected intravenously (i/v) via the lateral tail vein with a single sublethal dose of Concanavalin A from Canavalia ensiformis (Jack bean, Type IV-S, lyophilized powder, aseptically processed; Sigma) administered at 10-16 mg/kg mouse body weight in a total volume of 0.1-0.3 ml of pyrogen-free PBS. The tail vein injections of mice restrained in a Plexiglas mouse restrainer were performed without anesthesia, using a 1 ml syringe with a 27 gauge needle. At six and 24 hr post-injection, blood samples were collected by retro-orbital bleeding. The animals were sacrificed and sera from the blood samples were analyzed for the presence of IL-12, TNF-α, MCP-1, IFN-γ, IL-10, and IL-6 using a mouse inflammation cytometric bead array (CBA) kit (BD Biosciences, Mountain View, Calif.), according to the manufacturer's instructions. Data were acquired with a FACSCalibur flow cytometer and analyzed with BD CBA Software (BD Biosciences). Biochemical markers of liver failure were assessed by measuring serum liver damage enzymes, aspartate aminotransferase (AST) and alanine aminotransferase (ALT), using a standard clinical biochemical analyzer. Livers of ConA-treated mice were sectioned and stained with H&E to evaluate the degree of T cell-mediated immune inflammation.

mouse EAE model = assay: Mouse EAE disease model; type: in vivo; conditions: mice, subcutaneous dosing, 3 mg/kg, 10 mg/kg BID 12 days from Day 9 after MOG immunization; FIG. 9A
Experimental: Here, an adaptation of the method of Bettelli, et al., J. Immunol. 161:3299 (1998) was implemented. Eight to 12 weeks old C57Bl/6-Albino/129SvEv littermates were immunized subcutaneously with a total of 300 μg MOGp35-55 peptide ([…]) emulsified in complete Freund's adjuvant (CFA) containing 250 μg heat-inactivated Mycobacterium tuberculosis H37 Ra (Difco Laboratories). The antigen was divided equally across two injection sites in the abdominal flanks. Immediately following the injection of the emulsified antigen (day 0), each mouse received one intravenous injection of 500 ng of Pertussis toxin (List Biological Laboratories). Animal weights were recorded prior to the start of the experiment and monitored throughout the experiment, 2-3 times per week. Disease severity was scored on a scale as follows: 0=asymptomatic, no detectable sign of disease; 1=slight weakness of the tail/floppy tail and/or slumped hindquarters; 2=definite total paralysis of the tail; 3=mild waddle/distorted gait and total paralysis of the tail and/or mild impaired righting reflex; 4=heavy waddle with impaired control-weakness of hind limbs and/or impaired righting reflex; 5=paralysis of one of the hind limbs possibly with mild forelimb weakness; 6=paralysis of both hind limbs and/or moderate to severe forelimb weakness; 7=quadriplegia/paralysis of all limbs—hind and fore; 8=moribund/dead. […]

mouse CIA disease model = assay: Mouse CIA disease model; type: in vivo; conditions: mice, 10, 30, 100 mg/kg PO bid 21 days from Day 20 after immunization; FIG. 4
Experimental: Eight to 16 weeks old DBA/1 mice were immunized intradermally (i.d.) at several sites into the base of the tail with 100 μg of chicken type II collagen (CII; Sigma Chemical Co.) in Freund's complete adjuvant (CFA; Difco, Detroit, Mich.) containing 2.5 mg/ml M. tuberculosis, followed by a repeat booster i.d. injection of CII (100 μg emulsified in CFA) given 3 weeks after the primary immunization. Mice were monitored daily for signs of arthritis, and disease severity scores were assessed by a visual scoring of 0 to 4 according to the following scale: 0=no erythema and swelling; 1=erythema and mild swelling of the mid-foot or ankle joint; 2=erythema and mild swelling extending from the ankle to the mid-foot; 3=erythema and moderate swelling extending from the ankle to the metatarsal joints; 4=erythema and severe swelling of the ankle, foot, and digits. Total disease severity scores were recorded as a sum of visual scores for four limbs. In addition to visual scoring, paw thickness was measured with a micrometer caliper.

rat CIA disease model = assay: Rat CIA disease model; type: in vivo; conditions: rats, 10 and 25 mg/kg PO BID, 50 mg/kg QD from Day 11 after immunization; FIG. 5
Experimental: CIA was elicited in rats according to Rosloniec, E. F., et al., Curr Protoc Immunol Chapter 15: Unit 15, pp. 11-25. Here, Lewis rats (150-200 g, female; Charles River Laboratories, Wilmington, Mass.) were injected intradermally at the base of the tail with a total of 300 μl of a 1:1 emulsion of bovine type II collagen (CII; 150 μg total; Sigma-Aldrich) and incomplete Freund's adjuvant (IFA; 150 μl total; Sigma-Aldrich), followed by a repeat booster injection of the same emulsion 7 days after the primary immunization. Rats were monitored for signs of arthritis by clinical scoring (visual observation) of each rat paw, using the rating scale described above. The extent of swelling was calculated by subtracting the baseline values of the first measurement from the values of subsequent measurements.

[2] = 1 μM ATP, read-out: IC50 (μM) 1 μM ATP
[3] = 50 μM ATP, read-out: IC50 (μM) 50 μM ATP

| Compound | IC50 (MST1; [2]) | IC50 (MST1; [3]) | severity of clinical score (rat EAE model; rats, 0.3, 1, 3 or 10 mg/kg PO QD from Day 10 after immunization, FIG. 7A) | TNF-α, IL-6, MCP-1, IFN-γ, ALT and AST ([1]; mice, 1, 3, 10, 30 mg/kg PO 16 h and 1 h before and 8 h after Con-A challenge, FIG. 8) | clinical score (mouse EAE model) | severity of clinical score (rat EAE model; rats, 10, 25 or 50 mg/kg PO BID from Day 9 after immunization, FIG. 3) | cumulative arthritis score and change in ankle thickness (mouse CIA disease model) | cumulative arthritis score and change in ankle thickness (rat CIA disease model) | TNF-α, IL-6, MCP-1, IFN-γ, ALT and AST ([1]; mice, 10, 30, 100 mg/kg dosed 16 h and 1 h before and 8 h after Con-A challenge, FIG. 6) |
| --- | --- | --- | --- | --- | --- | --- | --- | --- | --- |
| N#CC1(c2ccc(-c3cnc(N)c(-c4ccc5c(c4)CCNC5=O)n3)cc2)CC1 [1-(4-(5-amino-6-(1-oxo-1,2,3,4-tetrahydroisoquinolin-6-yl)pyrazin-2-yl)phenyl)cyclopropanecarbonitrile] | < 0.05 µM | < 0.01 µM | dose-dependent reduction in severity of clinical score | clear effect | – | – | – | – | – |
| CN(C1CC1)S(=O)(=O)c1ccc(-c2cnc(N)c(-c3ccc4c(c3)CCNC4=O)n2)cc1 [4-(5-amino-6-(1-oxo-1,2,3,4-tetrahydroisoquinolin-6-yl)pyrazin-2-yl)-N-cyclopropyl-N-methylbenzenesulfonamide] | < 0.01 µM | < 0.01 µM | – | – | clear dose-dependency in clinical score | – | – | – | – |
| CN(C1CC1)S(=O)(=O)c1ccc(-c2cnc(N)c(-c3ccc4c(c3)CCNC4=O)c2)cc1 [4-(6-amino-5-(1-oxo-1,2,3,4-tetrahydroisoquinolin-6-yl)pyridin-3-yl)-N-cyclopropyl-N-methylbenzenesulfonamide] | < 0.01 µM | < 0.01 µM | – | – | – | dose-dependent reduction in severity of clinical score | clear benefit versus control | therapeutic effect | clear effect |
| CCOC(=O)Cc1ccc(-c2cnc(N)c(-c3ccc4c(c3)CCNC4=O)n2)cc1 [ethyl 2-(4-(5-amino-6-(1-oxo-1,2,3,4-tetrahydroisoquinolin-6-yl)pyrazin-2-yl)phenyl)acetate] | < 0.15 µM | < 0.05 µM | – | – | – | – | – | – | – |
| COC(=O)CN(C)S(=O)(=O)c1ccc(-c2cnc(N)c(-c3ccc4c(c3)CCNC4=O)c2)cc1 [methyl 2-(4-(6-amino-5-(1-oxo-1,2,3,4-tetrahydroisoquinolin-6-yl)pyridin-3-yl)-N-methylphenylsulfonamido)acetate] | < 0.15 µM | < 0.05 µM | – | – | – | – | – | – | – |
| CC(C)(C)OC(=O)N1CC=C(c2cnc(N)c(-c3ccc4c(c3)CCNC4=O)c2)CC1 [tert-butyl 6-amino-5-(1-oxo-1,2,3,4-tetrahydroisoquinolin-6-yl)-5′,6′-dihydro-[3,4′-bipyridine]-1′(2′H)-carboxylate] | < 0.15 µM | < 0.05 µM | – | – | – | – | – | – | – |
